Measurements reported in PMC7591811 (Journal of Pharmaceutical Analysis, 2020).

Assays:
[1] = tested on: Cl^- channel (GABA gated); assay: Lead profiling screen; type: binding; conditions: 10 μM, Rat
AR = biological target: T1, AR (Homo sapiens, UniProt P10275); assay: Lead profiling screen; type: binding; conditions: Rat
T1 sequence (P10275 1-920): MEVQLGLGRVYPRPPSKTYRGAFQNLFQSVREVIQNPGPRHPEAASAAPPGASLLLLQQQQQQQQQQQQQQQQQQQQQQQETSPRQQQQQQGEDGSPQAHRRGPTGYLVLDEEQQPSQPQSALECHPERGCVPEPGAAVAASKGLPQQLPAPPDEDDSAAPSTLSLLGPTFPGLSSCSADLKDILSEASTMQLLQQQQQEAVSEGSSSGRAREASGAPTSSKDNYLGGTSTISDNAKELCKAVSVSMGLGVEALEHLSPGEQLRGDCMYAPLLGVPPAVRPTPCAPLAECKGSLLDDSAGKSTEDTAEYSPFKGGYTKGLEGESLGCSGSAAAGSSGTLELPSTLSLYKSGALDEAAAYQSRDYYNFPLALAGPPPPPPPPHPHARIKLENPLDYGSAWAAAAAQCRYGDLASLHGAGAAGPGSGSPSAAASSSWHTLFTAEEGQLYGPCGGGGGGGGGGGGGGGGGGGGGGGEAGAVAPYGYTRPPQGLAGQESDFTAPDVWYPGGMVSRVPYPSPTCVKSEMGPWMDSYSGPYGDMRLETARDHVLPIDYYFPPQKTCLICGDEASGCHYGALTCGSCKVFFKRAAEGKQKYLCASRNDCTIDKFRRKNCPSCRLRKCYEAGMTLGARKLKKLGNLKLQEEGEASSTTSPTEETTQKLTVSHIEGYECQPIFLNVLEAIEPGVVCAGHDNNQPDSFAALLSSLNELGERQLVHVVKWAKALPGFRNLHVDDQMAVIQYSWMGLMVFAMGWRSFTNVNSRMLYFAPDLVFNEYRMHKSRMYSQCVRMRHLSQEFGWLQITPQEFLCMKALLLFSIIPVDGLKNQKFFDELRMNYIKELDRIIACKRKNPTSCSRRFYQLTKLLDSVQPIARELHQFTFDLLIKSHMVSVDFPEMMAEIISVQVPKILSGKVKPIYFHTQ

Melatonin MT2 = biological target: T2, Melatonin MT2 (Homo sapiens, UniProt P49286); assay: Lead profiling screen; type: binding; conditions: for inhibition at 10 µM: Melatonin MT2, Human
T2 sequence (P49286 1-362): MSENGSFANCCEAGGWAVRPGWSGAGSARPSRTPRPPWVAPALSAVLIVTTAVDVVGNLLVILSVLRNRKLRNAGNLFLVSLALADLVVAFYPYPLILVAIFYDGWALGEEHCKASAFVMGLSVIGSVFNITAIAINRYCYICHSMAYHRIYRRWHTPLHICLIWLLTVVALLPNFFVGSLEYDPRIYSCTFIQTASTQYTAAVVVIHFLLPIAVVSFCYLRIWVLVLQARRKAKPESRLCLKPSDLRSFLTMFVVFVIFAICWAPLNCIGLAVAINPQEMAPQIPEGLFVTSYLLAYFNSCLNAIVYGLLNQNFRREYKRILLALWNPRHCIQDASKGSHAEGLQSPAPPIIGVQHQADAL

BZD (peripheral) = BZD (peripheral) (Rattus norvegicus, UniProt P16257); assay: Lead profiling screen; type: binding; conditions: for inhibition at 10 µM: BZD (peripheral) / TSPO, Rat
Sequence of BZD (peripheral) (P16257 whole entry): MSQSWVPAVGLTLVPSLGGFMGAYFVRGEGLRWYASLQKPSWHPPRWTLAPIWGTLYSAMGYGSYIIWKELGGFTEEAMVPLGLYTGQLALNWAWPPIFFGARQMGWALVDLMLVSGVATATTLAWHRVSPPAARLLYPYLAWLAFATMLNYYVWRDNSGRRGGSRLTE

BZD (central) = assay: Lead profiling screen; type: binding; conditions: 10 μM, Rat
Adenosine A3 = biological target: T3, Adenosine A3 (Homo sapiens, UniProt P0DMS8); assay: Lead profiling screen; type: binding; conditions: for inhibition at 10 µM: Adenosine A3, Human
T3 sequence (P0DMS8 1-318): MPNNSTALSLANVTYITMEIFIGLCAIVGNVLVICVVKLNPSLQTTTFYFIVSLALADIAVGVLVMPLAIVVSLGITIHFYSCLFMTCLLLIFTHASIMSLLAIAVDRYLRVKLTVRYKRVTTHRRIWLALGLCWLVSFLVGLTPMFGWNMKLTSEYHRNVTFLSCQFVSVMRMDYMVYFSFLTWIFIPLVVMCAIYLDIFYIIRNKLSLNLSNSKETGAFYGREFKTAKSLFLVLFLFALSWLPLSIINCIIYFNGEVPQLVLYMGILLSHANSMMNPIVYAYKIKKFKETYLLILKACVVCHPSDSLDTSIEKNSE

Melatonin MT1 = Melatonin MT1 (Homo sapiens, UniProt P48039); assay: Lead profiling screen; type: binding
Sequence of Melatonin MT1 (P48039 whole entry): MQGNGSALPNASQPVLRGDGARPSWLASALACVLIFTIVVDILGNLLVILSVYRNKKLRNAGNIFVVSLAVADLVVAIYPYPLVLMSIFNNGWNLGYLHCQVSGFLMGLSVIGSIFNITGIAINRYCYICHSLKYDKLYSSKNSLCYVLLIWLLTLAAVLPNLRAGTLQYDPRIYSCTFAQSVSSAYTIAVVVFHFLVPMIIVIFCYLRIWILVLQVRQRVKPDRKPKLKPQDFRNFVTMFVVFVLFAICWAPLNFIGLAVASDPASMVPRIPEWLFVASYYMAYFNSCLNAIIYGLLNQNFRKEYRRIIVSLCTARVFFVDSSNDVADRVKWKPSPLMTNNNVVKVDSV

UT = biological target: T4, UT (Homo sapiens, UniProt Q9UKP6); assay: Lead profiling screen; type: binding; conditions: for inhibition at 10 µM: UT, Human
T4 sequence (Q9UKP6 1-389): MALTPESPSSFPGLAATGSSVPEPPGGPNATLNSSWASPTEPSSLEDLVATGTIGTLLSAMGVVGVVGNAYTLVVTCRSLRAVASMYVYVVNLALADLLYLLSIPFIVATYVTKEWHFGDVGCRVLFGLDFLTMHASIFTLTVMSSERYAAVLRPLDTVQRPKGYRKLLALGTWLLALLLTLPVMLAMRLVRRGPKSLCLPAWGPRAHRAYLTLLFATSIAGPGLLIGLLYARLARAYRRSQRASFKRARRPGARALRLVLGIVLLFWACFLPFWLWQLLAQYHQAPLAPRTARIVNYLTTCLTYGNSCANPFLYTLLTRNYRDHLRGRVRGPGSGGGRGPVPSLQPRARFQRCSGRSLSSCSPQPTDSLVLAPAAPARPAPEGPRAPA

Cyclooxygenase 1 = Cyclooxygenase 1 (Homo sapiens, UniProt P23219); assay: Lead profiling screen, enzyme assay; type: biochemical
Sequence of Cyclooxygenase 1 (P23219 24-599, species assumed): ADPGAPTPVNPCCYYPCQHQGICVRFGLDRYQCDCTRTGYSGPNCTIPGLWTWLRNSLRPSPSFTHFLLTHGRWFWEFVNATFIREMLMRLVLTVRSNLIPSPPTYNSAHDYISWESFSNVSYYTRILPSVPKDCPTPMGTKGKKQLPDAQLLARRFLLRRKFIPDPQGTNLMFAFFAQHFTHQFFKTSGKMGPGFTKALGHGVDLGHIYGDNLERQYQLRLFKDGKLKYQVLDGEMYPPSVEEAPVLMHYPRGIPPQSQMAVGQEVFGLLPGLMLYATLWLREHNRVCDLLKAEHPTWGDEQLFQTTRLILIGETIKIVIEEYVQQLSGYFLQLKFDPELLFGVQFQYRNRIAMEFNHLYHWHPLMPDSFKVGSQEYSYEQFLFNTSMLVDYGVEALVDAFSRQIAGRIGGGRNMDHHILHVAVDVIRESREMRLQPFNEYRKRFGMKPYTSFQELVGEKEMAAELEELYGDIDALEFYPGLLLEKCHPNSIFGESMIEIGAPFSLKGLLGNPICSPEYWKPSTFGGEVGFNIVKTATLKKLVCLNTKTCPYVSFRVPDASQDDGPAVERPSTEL

[2] = biological target: Serotonin (5-Hydroxytryptamine) 5-HT2B (Homo sapiens, UniProt P41595); assay: Lead profiling screen; type: binding; conditions: for inhibition at 10 µM: 5-HT2B, Human
Sequence of Serotonin (5-Hydroxytryptamine) 5-HT2B (P41595 whole entry): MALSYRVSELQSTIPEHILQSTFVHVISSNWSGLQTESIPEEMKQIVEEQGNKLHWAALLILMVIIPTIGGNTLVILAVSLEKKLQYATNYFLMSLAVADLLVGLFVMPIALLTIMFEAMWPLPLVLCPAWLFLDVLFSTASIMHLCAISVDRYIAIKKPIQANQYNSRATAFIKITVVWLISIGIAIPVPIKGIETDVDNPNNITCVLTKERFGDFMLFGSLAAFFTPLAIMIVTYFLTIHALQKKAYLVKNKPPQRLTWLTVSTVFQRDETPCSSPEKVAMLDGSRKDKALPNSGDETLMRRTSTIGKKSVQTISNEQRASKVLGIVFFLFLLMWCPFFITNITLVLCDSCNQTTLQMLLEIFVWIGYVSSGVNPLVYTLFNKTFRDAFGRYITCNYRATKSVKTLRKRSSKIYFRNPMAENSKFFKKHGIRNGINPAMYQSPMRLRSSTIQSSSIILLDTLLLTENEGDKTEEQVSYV

ctRAGE = conditions: read-out: ctRAGE Kd; cited from earlier work
[3] = biological target: Norephinephrine transporter (Homo sapiens, UniProt P23975); assay: Lead profiling screen; type: binding
Sequence of Norephinephrine transporter (P23975 whole entry): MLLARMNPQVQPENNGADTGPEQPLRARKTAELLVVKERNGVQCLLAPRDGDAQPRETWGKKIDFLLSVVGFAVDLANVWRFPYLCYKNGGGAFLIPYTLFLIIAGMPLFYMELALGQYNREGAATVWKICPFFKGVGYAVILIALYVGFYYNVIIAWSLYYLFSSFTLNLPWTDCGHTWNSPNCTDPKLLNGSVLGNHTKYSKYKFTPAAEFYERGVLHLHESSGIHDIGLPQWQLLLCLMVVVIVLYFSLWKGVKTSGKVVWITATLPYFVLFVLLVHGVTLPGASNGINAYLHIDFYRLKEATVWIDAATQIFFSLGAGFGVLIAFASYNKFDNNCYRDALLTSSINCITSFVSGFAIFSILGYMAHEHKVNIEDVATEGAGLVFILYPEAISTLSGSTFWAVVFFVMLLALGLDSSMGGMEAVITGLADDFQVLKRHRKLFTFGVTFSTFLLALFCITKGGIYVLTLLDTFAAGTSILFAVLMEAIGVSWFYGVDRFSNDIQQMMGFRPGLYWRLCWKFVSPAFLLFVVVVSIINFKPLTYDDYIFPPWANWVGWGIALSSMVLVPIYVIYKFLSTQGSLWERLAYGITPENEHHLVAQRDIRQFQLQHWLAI

[4] = biological target: Serotonin (5-Hydroxytryptamine) 5-HT2A (Homo sapiens, UniProt P28223); assay: Lead profiling screen; type: binding
Sequence of Serotonin (5-Hydroxytryptamine) 5-HT2A (P28223 whole entry): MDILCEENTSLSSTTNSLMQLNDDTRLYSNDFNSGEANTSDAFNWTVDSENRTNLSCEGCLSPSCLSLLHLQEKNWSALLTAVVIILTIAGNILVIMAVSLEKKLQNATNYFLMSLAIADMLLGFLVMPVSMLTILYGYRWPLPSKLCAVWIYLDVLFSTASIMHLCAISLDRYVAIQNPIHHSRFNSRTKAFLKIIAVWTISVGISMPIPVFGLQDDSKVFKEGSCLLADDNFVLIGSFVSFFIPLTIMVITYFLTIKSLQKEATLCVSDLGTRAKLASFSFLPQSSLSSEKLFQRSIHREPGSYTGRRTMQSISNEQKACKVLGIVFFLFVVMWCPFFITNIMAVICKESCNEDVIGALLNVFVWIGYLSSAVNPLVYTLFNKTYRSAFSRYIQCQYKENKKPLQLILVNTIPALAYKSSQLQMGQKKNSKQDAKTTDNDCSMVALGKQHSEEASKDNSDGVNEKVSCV

EP2 = EP2 (Homo sapiens, UniProt P43116); assay: Lead profiling screen; type: binding
Sequence of EP2 (P43116 whole entry): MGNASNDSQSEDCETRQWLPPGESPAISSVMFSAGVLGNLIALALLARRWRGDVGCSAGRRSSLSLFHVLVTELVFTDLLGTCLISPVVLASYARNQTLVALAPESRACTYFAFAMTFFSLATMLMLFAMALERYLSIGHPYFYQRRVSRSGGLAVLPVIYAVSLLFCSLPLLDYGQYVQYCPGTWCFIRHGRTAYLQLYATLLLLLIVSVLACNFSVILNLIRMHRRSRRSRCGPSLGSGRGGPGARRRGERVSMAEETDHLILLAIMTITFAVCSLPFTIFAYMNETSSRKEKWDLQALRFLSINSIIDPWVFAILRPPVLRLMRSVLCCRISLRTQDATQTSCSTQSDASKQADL

[5] = Rodent [18F]RAGER PET, melatonin blocking; conditions: 5 μg/kg i.v. 10 min prior to [18F]RAGER, healthy rodents
[6] = Nonhuman primate [18F]RAGER PET, melatonin blocking and displacement; conditions: NHP
[7] = [18F]RAGER autoradiography, competitive binding with melatonin; set-up: species or system human; conditions: 10 μM melatonin; control, AD and DLB + AD brain tissue sections
Androgen (Testosterone) = biological target: T5, Androgen (Testosterone) (Homo sapiens, UniProt P10275); assay: Lead profiling screen; type: binding
T5 sequence (P10275 1-920): T1 sequence (P10275 1-920)

[8] = cited from earlier work
[9] = biological target: Transporter, Dopamine (DAT) (Homo sapiens, UniProt Q01959); assay: Lead profiling screen; type: binding
Sequence of Transporter, Dopamine (DAT) (Q01959 whole entry): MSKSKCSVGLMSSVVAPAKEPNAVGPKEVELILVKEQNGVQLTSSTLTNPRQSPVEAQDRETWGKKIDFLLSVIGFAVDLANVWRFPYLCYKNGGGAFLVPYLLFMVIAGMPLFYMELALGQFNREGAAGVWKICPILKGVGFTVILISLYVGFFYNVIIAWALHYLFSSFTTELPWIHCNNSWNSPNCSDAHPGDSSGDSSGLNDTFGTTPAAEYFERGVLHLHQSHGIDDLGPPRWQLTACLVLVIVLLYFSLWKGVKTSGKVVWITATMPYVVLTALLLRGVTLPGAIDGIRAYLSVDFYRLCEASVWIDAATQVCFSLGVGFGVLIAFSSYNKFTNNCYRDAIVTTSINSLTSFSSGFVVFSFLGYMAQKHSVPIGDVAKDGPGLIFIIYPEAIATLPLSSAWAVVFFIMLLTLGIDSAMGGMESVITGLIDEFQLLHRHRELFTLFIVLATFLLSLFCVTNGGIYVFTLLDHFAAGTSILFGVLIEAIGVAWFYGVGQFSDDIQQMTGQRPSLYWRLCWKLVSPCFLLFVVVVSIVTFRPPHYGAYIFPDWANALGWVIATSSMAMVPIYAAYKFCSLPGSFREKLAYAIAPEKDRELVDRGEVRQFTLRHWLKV

[10] = biological target: Peripheral benzodiazepine receptor (Rattus norvegicus, UniProt P16257); assay: Lead profiling screen, RAGER; type: binding
Sequence of Peripheral benzodiazepine receptor (P16257 whole entry): as the sequence (P16257 whole entry) above

Row | Ki (Melatonin MT2) [nM] | inhibition at 10 µM (Melatonin MT2) [%] | inhibition at 10 µM (BZD (peripheral)) [%] | inhibition at 10 µM (Adenosine A3) [%] | Ki (Melatonin MT1) [nM] | inhibition at 10 µM (Melatonin MT1) [%] | IC50 (UT) [nM] | Ki (UT) [nM] | inhibition at 10 µM (UT) [%] | IC50 (BZD (peripheral)) [nM] | Ki (BZD (peripheral)) [nM] | Ki (Adenosine A3) [nM] | IC50 [2] [nM] | Ki [2] [nM] | inhibition at 10 µM [2] [%] | SMILES | Kd (ctRAGE) [nM] | other results
1 | 4400 | 54 | 85 | 64 | 1200 | 54 |  |  |  |  |  |  |  |  |  | O=C(c1ccc(Cl)cc1)N(Cc1ccccc1)C1CCCCC1 [FPS-ZM1, N-Benzyl-N-cyclohexyl-4-chlorobenzamide] |  | % Inhibition [1]: 62%; inhibition at 10 µM (AR): 88%; IC50 (Melatonin MT2): 7000 nM; % Inhibition (BZD (central)): 59%; IC50 (Melatonin MT1): 1500 nM
2 |  |  | 81 | 75 |  |  | 1400 | 1000 | 85 | 480 | 440 | 830 | 260 | 130 | 95 | COc1cc(NC(C)=O)c(Cl)cc1C(=O)Nc1nccs1 [InRAGER2, 4-Acetamido-5-chloro-2-methoxy-N-(thiazol-2-yl)benzamide] | 0.3 ± 0.05 | IC50 (Cyclooxygenase 1): 12000 nM; IC50 (Adenosine A3): 1400 nM
3 |  |  |  | 99 |  |  | 1400 | 8900 | 78 | 480 | 12000 | 24 | 260 | 550 | 97 | Oc1cccc(Nc2nc(-c3ccc(F)cc3F)cs2)c1 [InRAGER, 3-((4-(2,4-difluorophenyl)thiazol-2-yl)amino)phenol] | 1 ± 0.5 | Ki [3]: 1500 nM; inhibition at 10 µM ([3]; 10 μM, Norephinephrine transporter, Human): 95%; Ki [4]: 7800 nM; Ki (EP2): 2300 nM; inhibition at 10 µM (EP2; 10 μM, EP2, Human): 74%
4 |  |  |  |  |  |  |  |  |  |  |  |  |  |  |  | COc1ccc2[nH]cc(CCNC(C)=O)c2c1 [Melatonin] |  | effect on [18F]RAGER uptake or washout compared to baseline [5]: no effect; change in radioligand uptake, maximal SUV, TAC shape vs baseline (blocking) ([6]; 5 μg/kg i.v. 10 min prior to [18F]RAGER): did not reveal any decrease; maximal SUV or TAC shape vs baseline (displacement) ([6]; 10 μg/kg i.v. 40 min into the 90 min scan): did not differ significantly; displacement of [18F]RAGER [7]: not able to displace
5 | 700 | 82 |  |  | 93 | 96 |  |  |  |  |  |  |  |  |  | O=C(c1ccc(F)cc1)N(Cc1ccccc1)C1CCCCC1 [RAGER, N-Benzyl-N-cyclohexyl-4-fluorobenzamide] |  | Ki (Androgen (Testosterone)): 2600 nM; inhibition at 10 µM (Androgen (Testosterone)): 59%; experimental log P [8]: 3.5; Ki [9]: 6800 nM; inhibition at 10 µM [9]: 52%; Ki [10]: 8500 nM; inhibition at 10 µM ([10]; read-out: %Inhibition at 10 μM): 64%
